Key:
Assay type in all cases: cell-based
M. smegmatis fbpA mutant = details: mutant compared with wild type
M. tuberculosis [1] = assay: Alamar blue MIC with efflux pump inhibitors reserpine and verapamil; details: reserpine or verapamil at 20 or 40 μg/ml
M. tuberculosis [2] = assay: Alamar blue MIC with cell wall weakening agent ethambutol at 0.5 MIC

| SMILES | Improvement of MIC in M. smegmatis fbpA mutant (M. smegmatis fbpA mutant) | other results |
| --- | --- | --- |
| CC[C@H]1OC(=O)[C@H](C)[C@@H](O[C@H]2C[C@@](C)(OC)[C@@H](O)[C@H](C)O2)[C@H](C)[C@@H](O[C@@H]2O[C@H](C)C[C@H](N(C)C)[C@H]2O)[C@](C)(O)C[C@@H](C)C(=O)[C@H](C)[C@@H](O)[C@]1(C)O [erythromycin] | 8 fold | – |
| CC[C@@H](CO)NCCN[C@@H](CC)CO [ethambutol] | not improved | – |
| CC[n+]1c(-c2ccccc2)c2cc(N)ccc2c2ccc(N)cc21 [ethidium bromide] | – | Decrease of MIC with efflux pump inhibitor (M. tuberculosis [1]): 4 fold |
| CO[C@H]1/C=C/O[C@@]2(C)Oc3c(C)c(O)c4c(O)c(c(/C=N/N5CCN(C)CC5)c(O)c4c3C2=O)NC(=O)/C(C)=C\C=C\[C@H](C)[C@H](O)[C@@H](C)[C@@H](O)[C@@H](C)[C@H](OC(C)=O)[C@@H]1C [rifampicin] | – | Reduction of MIC in the presence of sub-inhibitory ethambutol (M. tuberculosis [2]): 4 fold |
| [H]/N=C(/N)N[C@H]1[C@H](O)[C@@H](O)[C@H](O[C@@H]2O[C@@H](C)[C@](O)(C=O)[C@H]2O[C@@H]2O[C@@H](CO)[C@H](O)[C@@H](O)[C@@H]2NC)[C@@H](N/C(N)=N\[H])[C@@H]1O [streptomycin] | not improved | – |
| CN[C@H](CC(C)C)C(=O)N[C@H]1C(=O)N[C@@H](CC(N)=O)C(=O)N[C@H]2C(=O)N[C@H]3C(=O)N[C@H](C(=O)N[C@H](C(=O)O)c4cc(O)cc(O)c4-c4cc3ccc4O)[C@H](O)c3ccc(c(Cl)c3)Oc3cc2cc(c3O[C@@H]2O[C@H](CO)[C@@H](O)[C@H](O)[C@H]2O[C@H]2C[C@](C)(N)[C@H](O)[C@H](C)O2)Oc2ccc(cc2Cl)[C@H]1O [vancomycin] | 16 fold | – |

Source: article PMC3158675, “Effective inhibitors of the essential kinase PknB and their potential as anti-mycobacterial agents” (Tuberculosis (Edinburgh, Scotland), 2011)
